Assay in all cases: ADP-Glo kinase assay
Common to all, as to format: biochemical

Assay [1] deals with T1, PI4KIIIα-CD (catalytic domain of PI4KIIIα) (Homo sapiens, UniProt P42356).
T1 construct: gene PI4KA; catalytic domain from G873 to the natural C-terminus, N-terminal His6 tag (pFastBac HT-B) kept, Sf9 / baculovirus, Ni-Sepharose; primer adds start ATG GGG (MGMMQCVI...); ends ...NDIPY

The next assay has as its target T2, PI3Kα (p110α/p85α) (Homo sapiens, UniProt P42336).
T2 construct: gene PIK3CA; commercial purified p110α/p85α heterodimer (Millipore); with Phosphatidylinositol 3-kinase regulatory subunit alpha

The target of the next assay is T3, PI3Kβ (p110β/p85α) (Homo sapiens, UniProt P42338).
T3 construct: gene PIK3CB; commercial purified p110β/p85α heterodimer (Millipore); with Phosphatidylinositol 3-kinase regulatory subunit alpha
T3 sequence (P42338 whole entry): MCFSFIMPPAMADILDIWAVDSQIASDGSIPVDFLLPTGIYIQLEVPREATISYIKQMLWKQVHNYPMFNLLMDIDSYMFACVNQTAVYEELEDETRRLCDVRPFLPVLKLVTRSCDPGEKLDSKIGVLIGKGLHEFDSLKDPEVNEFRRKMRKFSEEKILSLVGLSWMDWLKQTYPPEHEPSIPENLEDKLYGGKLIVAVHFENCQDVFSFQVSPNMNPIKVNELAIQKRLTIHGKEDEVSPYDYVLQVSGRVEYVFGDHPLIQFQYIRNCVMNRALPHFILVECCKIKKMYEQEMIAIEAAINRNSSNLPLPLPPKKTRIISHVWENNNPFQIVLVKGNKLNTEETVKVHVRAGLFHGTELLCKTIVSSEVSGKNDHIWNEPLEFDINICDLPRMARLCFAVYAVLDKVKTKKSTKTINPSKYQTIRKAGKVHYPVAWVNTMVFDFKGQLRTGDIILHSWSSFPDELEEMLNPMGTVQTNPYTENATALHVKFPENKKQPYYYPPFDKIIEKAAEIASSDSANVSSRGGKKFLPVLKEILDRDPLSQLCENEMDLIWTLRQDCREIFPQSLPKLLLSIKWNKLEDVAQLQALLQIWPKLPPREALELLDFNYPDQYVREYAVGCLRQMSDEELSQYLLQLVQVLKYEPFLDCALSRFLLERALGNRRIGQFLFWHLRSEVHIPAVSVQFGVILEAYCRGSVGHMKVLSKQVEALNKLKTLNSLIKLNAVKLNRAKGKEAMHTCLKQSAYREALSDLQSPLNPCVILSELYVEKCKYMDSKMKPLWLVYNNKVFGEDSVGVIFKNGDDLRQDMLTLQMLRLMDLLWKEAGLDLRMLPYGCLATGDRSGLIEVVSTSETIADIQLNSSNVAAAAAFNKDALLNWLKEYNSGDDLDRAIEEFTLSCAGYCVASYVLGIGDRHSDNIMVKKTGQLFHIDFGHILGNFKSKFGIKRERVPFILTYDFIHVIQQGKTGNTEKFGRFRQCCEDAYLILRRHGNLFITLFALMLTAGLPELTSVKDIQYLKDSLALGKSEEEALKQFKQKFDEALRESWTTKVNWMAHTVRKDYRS
T3 sequence (P27986 2-724 partner): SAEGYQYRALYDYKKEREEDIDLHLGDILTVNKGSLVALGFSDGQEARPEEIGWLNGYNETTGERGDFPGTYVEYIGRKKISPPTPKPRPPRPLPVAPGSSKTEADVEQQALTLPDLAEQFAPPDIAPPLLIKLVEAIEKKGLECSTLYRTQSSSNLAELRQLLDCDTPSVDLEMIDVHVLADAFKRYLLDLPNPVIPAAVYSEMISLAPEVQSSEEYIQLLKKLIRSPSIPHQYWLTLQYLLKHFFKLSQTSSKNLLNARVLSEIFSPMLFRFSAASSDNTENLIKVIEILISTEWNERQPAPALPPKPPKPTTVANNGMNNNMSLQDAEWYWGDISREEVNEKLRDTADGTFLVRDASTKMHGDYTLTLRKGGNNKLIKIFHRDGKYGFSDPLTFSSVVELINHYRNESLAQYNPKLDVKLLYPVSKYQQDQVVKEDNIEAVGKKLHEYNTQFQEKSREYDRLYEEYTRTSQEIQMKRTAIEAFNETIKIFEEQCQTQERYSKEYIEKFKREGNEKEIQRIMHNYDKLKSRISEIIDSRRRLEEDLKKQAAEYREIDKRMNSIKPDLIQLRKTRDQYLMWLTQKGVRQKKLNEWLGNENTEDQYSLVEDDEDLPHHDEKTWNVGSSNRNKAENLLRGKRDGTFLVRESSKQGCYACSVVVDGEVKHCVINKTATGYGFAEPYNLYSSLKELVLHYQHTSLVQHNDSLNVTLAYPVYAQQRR

This note sets out measurements from publication PMC3297592, “Metabolism of Phosphatidylinositol 4-Kinase IIIα-Dependent PI4P Is Subverted by HCV and Is Targeted by a 4-Anilino Quinazoline with Antiviral Activity” (PLoS Pathogens, 2012).

T1 sequence (P42356 931-2102): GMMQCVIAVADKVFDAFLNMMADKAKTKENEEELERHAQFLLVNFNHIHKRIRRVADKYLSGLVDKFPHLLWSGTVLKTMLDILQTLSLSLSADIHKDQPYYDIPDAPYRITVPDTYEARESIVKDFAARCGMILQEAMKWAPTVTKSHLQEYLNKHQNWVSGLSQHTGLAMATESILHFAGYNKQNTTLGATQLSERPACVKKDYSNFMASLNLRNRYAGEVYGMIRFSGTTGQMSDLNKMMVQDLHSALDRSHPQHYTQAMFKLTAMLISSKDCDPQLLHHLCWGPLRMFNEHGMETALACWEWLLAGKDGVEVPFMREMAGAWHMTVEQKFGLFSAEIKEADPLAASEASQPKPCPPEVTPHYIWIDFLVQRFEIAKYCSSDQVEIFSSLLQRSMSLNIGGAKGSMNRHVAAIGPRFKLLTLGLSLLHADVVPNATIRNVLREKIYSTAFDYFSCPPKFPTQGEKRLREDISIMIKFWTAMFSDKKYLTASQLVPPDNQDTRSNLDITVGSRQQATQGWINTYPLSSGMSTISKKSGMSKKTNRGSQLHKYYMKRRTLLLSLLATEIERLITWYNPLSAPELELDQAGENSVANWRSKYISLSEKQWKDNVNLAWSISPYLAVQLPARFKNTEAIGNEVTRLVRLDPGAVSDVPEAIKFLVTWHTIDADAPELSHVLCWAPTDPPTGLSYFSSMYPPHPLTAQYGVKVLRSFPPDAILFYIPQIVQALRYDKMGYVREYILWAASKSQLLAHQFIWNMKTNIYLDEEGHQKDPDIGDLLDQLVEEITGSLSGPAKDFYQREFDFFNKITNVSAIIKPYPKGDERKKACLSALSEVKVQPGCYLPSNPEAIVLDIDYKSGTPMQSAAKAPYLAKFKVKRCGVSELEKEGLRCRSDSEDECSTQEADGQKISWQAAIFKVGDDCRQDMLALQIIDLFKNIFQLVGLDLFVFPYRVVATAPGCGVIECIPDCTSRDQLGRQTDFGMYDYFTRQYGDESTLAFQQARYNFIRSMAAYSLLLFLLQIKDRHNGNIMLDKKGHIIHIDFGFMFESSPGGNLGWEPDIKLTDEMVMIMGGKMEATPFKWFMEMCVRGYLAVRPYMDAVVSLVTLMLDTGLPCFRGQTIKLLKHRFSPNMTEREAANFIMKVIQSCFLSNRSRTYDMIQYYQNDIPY
T2 sequence (P42336 whole entry): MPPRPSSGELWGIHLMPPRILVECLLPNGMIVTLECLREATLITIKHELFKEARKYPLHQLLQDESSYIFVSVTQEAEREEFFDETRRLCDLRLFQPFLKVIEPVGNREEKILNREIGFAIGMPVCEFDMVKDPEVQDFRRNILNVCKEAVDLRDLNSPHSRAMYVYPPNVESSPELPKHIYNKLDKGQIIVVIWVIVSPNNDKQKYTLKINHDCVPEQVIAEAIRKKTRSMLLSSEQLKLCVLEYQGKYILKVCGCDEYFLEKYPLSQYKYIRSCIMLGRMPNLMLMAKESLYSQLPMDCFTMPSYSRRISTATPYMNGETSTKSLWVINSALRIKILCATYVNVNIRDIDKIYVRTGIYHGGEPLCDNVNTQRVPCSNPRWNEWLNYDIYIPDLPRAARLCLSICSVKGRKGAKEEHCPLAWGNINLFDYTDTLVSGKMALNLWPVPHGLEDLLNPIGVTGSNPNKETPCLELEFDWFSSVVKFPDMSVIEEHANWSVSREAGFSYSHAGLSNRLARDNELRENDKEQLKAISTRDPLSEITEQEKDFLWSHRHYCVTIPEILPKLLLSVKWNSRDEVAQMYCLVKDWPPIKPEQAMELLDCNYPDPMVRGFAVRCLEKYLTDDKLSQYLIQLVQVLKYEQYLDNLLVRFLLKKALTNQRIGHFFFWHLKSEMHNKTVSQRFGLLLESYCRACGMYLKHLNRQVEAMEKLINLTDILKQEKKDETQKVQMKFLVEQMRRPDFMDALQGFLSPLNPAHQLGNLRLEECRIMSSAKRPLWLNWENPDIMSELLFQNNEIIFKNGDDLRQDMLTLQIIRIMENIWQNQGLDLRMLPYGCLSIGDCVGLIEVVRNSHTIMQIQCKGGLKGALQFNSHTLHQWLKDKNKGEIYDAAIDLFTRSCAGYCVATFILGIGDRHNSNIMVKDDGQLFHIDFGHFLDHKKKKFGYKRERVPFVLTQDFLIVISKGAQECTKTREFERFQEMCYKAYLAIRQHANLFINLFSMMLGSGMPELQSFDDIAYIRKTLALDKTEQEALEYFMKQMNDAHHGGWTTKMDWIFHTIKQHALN
T2 sequence (P27986 2-724 partner): as the sequence (P27986 2-724 partner) above

One may read the IC50 as the concentration that inhibits the measured activity by half. Lower therefore signals greater potency in that assay. For orientation: inhibition means the relative decrease from the control value, in per cent. A lower inhibition goes with a response near the control. Consider `OCc1ccc(-c2ccc3ncnc(Nc4ccc(N5CCOCC5)cc4)c3c2)o1` [AL-9], for which the IC50 in assay [1] was found to be 570 nM; at PI3Kα (p110α/p85α), 1100 nM. The inhibition at 10 µM on PI3Kβ (p110β/p85α) worked out at 40%.
